Results taken from publication PMC11189555, “Aryl amino acetamides prevent Plasmodium falciparum ring development via targeting the lipid-transfer protein PfSTART1” (Nature Communications, 2024).

Tests used:
[1] = target: T1, PfSTART1 in parasite lysate (Plasmodium falciparum, UniProt Q8I298); test: Solvent profiling Western Blot (solvent induced protein precipitation); format: binding; details: 10 µM W-991 vs DMSO, 0-25% AEF
T1 construct: endogenous in cells; host or cells: P. falciparum 3D7 schizonts, NP40-soluble lysate
T1 sequence (Q8I298 entry or part of it): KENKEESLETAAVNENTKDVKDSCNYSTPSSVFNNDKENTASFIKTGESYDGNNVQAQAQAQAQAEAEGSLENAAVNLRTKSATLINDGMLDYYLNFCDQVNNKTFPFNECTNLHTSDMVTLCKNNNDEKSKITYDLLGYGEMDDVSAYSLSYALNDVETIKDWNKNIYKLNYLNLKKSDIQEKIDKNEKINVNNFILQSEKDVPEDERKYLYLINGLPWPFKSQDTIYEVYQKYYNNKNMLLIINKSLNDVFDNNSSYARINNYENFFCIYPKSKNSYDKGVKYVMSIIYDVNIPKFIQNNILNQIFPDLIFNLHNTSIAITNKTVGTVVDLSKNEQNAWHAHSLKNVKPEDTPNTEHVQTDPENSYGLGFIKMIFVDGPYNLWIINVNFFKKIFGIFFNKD
Procedure: 3D7 parasites at schizont stage were harvested with 10 x pellet volume of 0.15% saponin in PBS. To extract soluble material, 10 x pellet volume of 0.4% NP40 (IGEPAL CA-630, Sigma-Aldrich) in PBS with 1x Complete Protease cocktail tablet (Sigma-Aldrich) was added to the parasite pellets and 3 cycles of freeze/thawing was performed. Samples were then mechanically sheared by passage through 25 G and 30 G needles before lysate was cleared via centrifugation at 16,000 g x 30 min at 4 °C. Soluble fractions were collected and stored at −80 °C until use.
For the solvent challenge, lysate was subjected to either W-991 (10 µM) or DMSO (0.1%) treatment for 3 min before aliquoted into final concentrations of 0-25% of Acetic acid/Ethanol/Formic acid (AEF) at a 50:50:0.1 (v/v/v)[25],[26]. The treated lysate and AEF mixture was incubated at 37 °C for 20 min at 800 rpm before aggregates were pelleted at 17,000 g x 20 min at 4 °C. Soluble fractions were removed, added to the final concentration of 1x NuPAGE LDS Sample Buffer (Invitrogen) with 1:100 2-mercaptoethanol (Sigma Aldrich) and boiled for 3 min. Proteins were separated on an 4-12% acrylamide gel (NuPAGE, Invitrogen) and subsequently transferred by electroblotting onto nitrocellulose membranes. Blots were probed with primary antibody anti-PfSTART1 (1:1000), followed by secondary antibody anti-rabbit-HRP (1:4000, Merck Millipore). […]

[2] = test system: ring-infected erythrocyte surface antigen (RESA3, PF3D7_1149200); test: Solvent-PISA (solvent proteome profiling, DIA-MS); format: binding, Plasmodium falciparum; details: 100 µM W-991 vs DMSO; 7-25% AEF
Procedure: (§1) The experiment was carried out in three biological replicates. Saponin-liberated mature parasite stages (30-42 hpi) were resuspended in PBS and lysed by 3x flash freeze/thawing using liquid N2, followed by 10 x mechanical sheering with a 29 G needle-syringe, and soluble protein isolation through ultracentrifugation (100,000 g; 20 min, 4 °C). Protein lysate was exposed to the 100 µM of W-991 or the vehicle control (DMSO) for 3 min and subsequently incubated with varying concentration of the solvent mixture ‘AEF’ (50% Acetone, 50% Ethanol, 0.1% Formate) to a final concentration of 7-25% (v/v) with 2% intervals, for 20 min at 37 °C at 800 rpm on a Thermomixer (Eppendorf). Denatured protein was pelleted through centrifugation (4 °C, 18,000 g, 20 min), and the soluble phase was recovered and pulled together in equivolume ratios into two samples; Gradient 1 ‘G1’: 7-15% EAF and Gradient 2 ‘G2’: 17-25% EAF, respectively.
(§2) Sample preparation for proteomic analysis was carried out using modified SP4 glass beads protocol. In brief, protein was reduced (20 mM TCEP, 100 mM TEAB) for 20 min at 55 °C and alkylated with 55 mM 2-Chloroacetamide for 30 min, followed by precipitation on beads in 80% ACN with a 6 min centrifugation at 21,000 g and 3 x wash with 80% Ethanol. Dried beads were subjected to sequential digestion with LysC (3 h, 1:50 ratio w/w) and trypsin (overnight, 1:50 ratio w/w), and the resulting digest was acidified with 1% TFA and desalted on T3 C18 stage tips (Affinisep) according to manufacturer’s specifications.
(§3) Peptide samples were analysed on Orbitrap Eclipse Tribrid mass spectrometer that is interfaced with the Neo Vanquish liquid chromatography system. Samples were loaded onto a C18 fused silica column (inner diameter 75 µm, OD 360 µm × 15 cm length, 1.6 µm C18 beads) packed into an emitter tip (IonOpticks) using pressure-controlled loading with a maximum pressure of 1,500 bar, that is interfaced to the mass spectrometer using Easy nLC source and electro sprayed directly into the mass spectrometer. Sample separation was carried out on a linear gradient 5% to 17% of solvent-B at 400 nL /min flow rate (solvent-B: 80% (by vol) acetonitrile) for 23 min and 17% to 25% solvent-B for 10 min, 25% to 34% for 11 min and 34% to 90% solvent-B for 1 min which was maintained at 90% B for 3 min and washed the column at 2% solvent-B for another 3 min comprising a total of 63 min run with a 45 min gradient in a data independent acquisition (DIA) mode MS scan parameters included a full scan using an orbitrap and 120,000 resolution, standard AGC target and maximum injection time of 30 ms. A second DIA experiment used the orbitrap at […] resolution, a precursor scan range of 200-1200 m/z with a normalized AGC target of 3000% and 45 variable isolation windows. Peptides were isolated and fragmented using stepped […] (HCD) at 24%, 28% and 32% normalized collision energy. Peptide identification was carried out in DIA-NN 1.8.1 using standard settings and an in silico spectral library generated from Uniprot P. falciparum (UP000001450) and human (UP000005640) reference proteomes. The peptide length range was set to 7-30 amino acids. […] Subsequently, the differential abundance analysis (moderated t-test, based on limma package[81]) of P. falciparum proteins was conducted in the R environment (R version 4.2.0; R Studio Version 2023.12.1 + 402) using precursor normalised MaxLFQ data for proteins detected with ≥2 peptides. […]

[3] = test system: PF3D7_1351000 (START-domain protein); test: Solvent-PISA (solvent proteome profiling, DIA-MS); format: binding, Plasmodium falciparum; details: 100 µM W-991 vs DMSO; Fig S4E
Procedure: as §1, §2, §3

[4] = test system: signal recognition particle subunit (SRP19, PF3D7_1216300); test: Solvent-PISA (solvent proteome profiling, DIA-MS); format: binding, Plasmodium falciparum; details: 100 µM W-991 vs DMSO; 7-25% AEF
Procedure: as §1, §2, §3

[5] = test system: PF3D7_1463500 (START-domain protein); test: Solvent-PISA (solvent proteome profiling, DIA-MS); format: binding, Plasmodium falciparum; details: 100 µM W-991 vs DMSO; Fig S4E
Procedure: as §1, §2, §3

[6] = test system: merozoites-associated armadillo repeats protein (MAAP, PF3D7_1035900); test: Solvent-PISA (solvent proteome profiling, DIA-MS); format: binding, Plasmodium falciparum; details: 100 µM W-991 vs DMSO; 7-25% AEF
Procedure: as §1, §2, §3

## CC(C)(Nc1ccc(Cl)c(S(=O)(=O)N2CCOCC2)c1)C(=O)Nc1ccc(F)c(Cl)c1 [W-991]
[1]
  AEF concentration at which protection to PfSTART1 aggregation was elicited: 19-21 % AEF
[2]
  soluble protein level in the presence of compound (stabilisation): drug-stabilised
[3]
  abundance/stability of the protein on compound treatment: not affected
[4]
  soluble protein level in the presence of compound (stabilisation): drug-stabilised
[5]
  abundance/stability of the protein on compound treatment: not affected
[6]
  soluble protein level in the presence of compound (stabilisation): drug-stabilised
